Source: article PMC11111691, “Cystine-knot peptide inhibitors of HTRA1 bind to a cryptic pocket within the active site region” (Nature Communications, 2024)

Legend:
Assay type in all cases: biochemical
HTRA2^PD/PDZ [1] = biological target: T1, HTRA2^PD/PDZ (Homo sapiens, UniProt O43464); assay: Fluorescence-quenched casein-BODIPY assay, HTRA2; conditions: 30 nM HTRA2^PD/PDZ, 2 µM CKP (0.5 mM 7mer-ABP)
T1 construct: Human HTRA2^PD/PDZ (A134-E458) was from R & D Systems; purchased R & D Systems 1458-HT-100
T1 sequence (O43464 134-458): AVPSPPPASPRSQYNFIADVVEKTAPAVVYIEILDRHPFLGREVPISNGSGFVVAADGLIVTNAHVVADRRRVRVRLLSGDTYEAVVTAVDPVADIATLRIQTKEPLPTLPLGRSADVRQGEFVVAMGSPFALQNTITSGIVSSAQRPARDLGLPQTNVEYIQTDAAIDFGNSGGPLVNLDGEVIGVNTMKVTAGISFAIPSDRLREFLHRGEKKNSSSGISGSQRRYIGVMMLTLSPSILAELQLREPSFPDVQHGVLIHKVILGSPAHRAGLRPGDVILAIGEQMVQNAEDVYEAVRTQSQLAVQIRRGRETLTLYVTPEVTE
Protocol: (§1) The fluorescence-quenched casein-BODIPY® assay (EnzCheck®, Thermo Fisher Scientific) was carried out in TNC buffer (50 mM Tris pH 8.0, 200 mM NaCl, 0.25% CHAPS) at 37 °C in 96-well black optical bottom plates (Nalge Nunc Int., Rochester, NY). Enzymes were incubated with CKPs or DMSO control for 15 min prior to addition of casein substrate. The reactant concentrations were: 30 nM HTRA1^FL, 30 nM HTRA1^PD/PDZ, 30 nM HTRA1^PD, 30 nM HTRA2^PD/PDZ, 30 nM HTRA3^FL, 100 nM HTRA3^PD/PDZ, 30 nM HTRA4^FL, 300 nM HTRA4^PD/PDZ, 2 µM CKP, 5 µg/ml casein substrate and 0.25% DMSO. For selectivity assays, 0.5 mM 7mer-ABP was used as positive control. The kinetics of substrate cleavage were measured at 37 °C on a SpectraMax M5 microplate reader (Molecular Devices) with excitation of 485 nm and emission of 530 nm for 30 min (HTRA1 and HTRA2) or 5 h (HTRA3 and HTRA4). The determined initial rates of cleavage were expressed as percent of control (DMSO control) after subtracting the baseline rates (without enzyme).

HTRA2^PD/PDZ [2] = biological target: T1, HTRA2^PD/PDZ; assay: H2-OPT selectivity assay, HTRA2; conditions: 1 nM HTRA2^PD/PDZ, 2 µM CKP (0.5 mM 7mer-ABP), 5 µM H2-OPT
Protocol: (§2) Assays with the fluorescence-quenched synthetic substrate Mca-IRRVSYSFK(Dnp)K (H2-OPT)[38],[60] were carried out essentially as described. CKP stock solutions in DMSO were diluted in TNC buffer (dilution series for IC50 determinations, or final concentration of 2 µM for selectivity assay or as indicated for HTRA1/4 mutants) and incubated with enzymes in 96-well black optical bottom plates for 60 min at 37 °C. For selectivity experiments we used the 7mer-ABP as inhibitor, which was incubated with the proteases for 15 min at 37 °C. A 10 mM stock solution of H2-OPT in DMSO was diluted with water, prewarmed at 37 °C and then added to the CKP-enzyme mixtures. The final concentrations in the reaction mixtures were: 1 nM HTRA1^FL, 3 nM HTRA1^PD/PDZ, 1 nM HTRA1^PD, 1 nM HTRA2^PD/PDZ, 3 nM HTRA3^FL, 60 nM HTRA3^PD/PDZ, 6 nM HTRA4^FL, 1 µM HTRA4^PD/PDZ, 1 nM mouse HTRA1^PD, 25 nM HTRA1^PD-A202Y, 1 µM HTRA4^PD/PDZ-Y200A, 0.5 mM 7mer-ABP, 5 µM H2-OPT, and 0.25% DMSO. The kinetics of substrate cleavage was measured at 37 °C on a SpectraMax M5 microplate reader with excitation of 328 nm and emission of 393 nm. The determined initial rates of cleavage were expressed as percent of control (DMSO control) after subtracting the baseline rates (without enzyme). IC50 values were determined by Sigmoidal 4PL modeling of multiple data points from serial dilutions of CKPs using Prism 9 software (GraphPad). […]

HTRA3^PD/PDZ, HTRA3^FL = biological target: T2, HTRA3^PD/PDZ, HTRA3^FL (Homo sapiens, UniProt P83110); assay: H2-OPT selectivity assay, HTRA3; conditions: 2 µM CKP (0.5 mM 7mer-ABP)
T2 construct: purchased Abcam (FL form); the PD/PDZ form was made in house in E. coli ab134450
Protocol: as §2

HTRA4^PD/PDZ, HTRA4^FL = biological target: T3, HTRA4^PD/PDZ, HTRA4^FL (Homo sapiens, UniProt P83105); assay: H2-OPT selectivity assay, HTRA4; conditions: 1 µM HTRA4^PD/PDZ, 2 µM CKP (0.5 mM 7mer-ABP), 5 µM H2-OPT
T3 construct: purchased Abcam (FL form); the PD/PDZ form was made in house in E. coli ab134444
T3 sequence (P83105 153-476): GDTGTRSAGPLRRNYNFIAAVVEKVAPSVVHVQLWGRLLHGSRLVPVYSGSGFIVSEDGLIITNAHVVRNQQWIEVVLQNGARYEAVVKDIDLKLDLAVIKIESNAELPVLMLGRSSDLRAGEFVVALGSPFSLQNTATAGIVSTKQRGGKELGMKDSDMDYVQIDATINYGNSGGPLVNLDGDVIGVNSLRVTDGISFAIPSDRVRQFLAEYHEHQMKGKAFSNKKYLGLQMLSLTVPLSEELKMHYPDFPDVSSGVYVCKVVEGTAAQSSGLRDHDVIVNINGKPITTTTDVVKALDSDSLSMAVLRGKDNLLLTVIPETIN
Protocol: Assays with the fluorescence-quenched synthetic substrate Mca-IRRVSYSFK(Dnp)K (H2-OPT)[38],[60] were carried out essentially as described. CKP stock solutions in DMSO were diluted in TNC buffer (dilution series for IC50 determinations, or final concentration of 2 µM for selectivity assay or as indicated for HTRA1/4 mutants) and incubated with enzymes in 96-well black optical bottom plates for 60 min at 37 °C. For selectivity experiments we used the 7mer-ABP as inhibitor, which was incubated with the proteases for 15 min at 37 °C. A 10 mM stock solution of H2-OPT in DMSO was diluted with water, prewarmed at 37 °C and then added to the CKP-enzyme mixtures. The final concentrations in the reaction mixtures were: 1 nM HTRA1^FL, 3 nM HTRA1^PD/PDZ, 1 nM HTRA1^PD, 1 nM HTRA2^PD/PDZ, 3 nM HTRA3^FL, 60 nM HTRA3^PD/PDZ, 6 nM HTRA4^FL, 1 µM HTRA4^PD/PDZ, 1 nM mouse HTRA1^PD, 25 nM HTRA1^PD-A202Y, 1 µM HTRA4^PD/PDZ-Y200A, 0.5 mM 7mer-ABP, 5 µM H2-OPT, and 0.25% DMSO. The kinetics of substrate cleavage was measured at 37 °C on a SpectraMax M5 microplate reader with excitation of 328 nm and emission of 393 nm. The determined initial rates of cleavage were expressed as percent of control (DMSO control) after subtracting the baseline rates (without enzyme). IC50 values were determined by Sigmoidal 4PL modeling of multiple data points from serial dilutions of CKPs using Prism 9 software (GraphPad). For selectivity assays with HTRA1-4^PD/PDZ constructs, the specific activities of the enzymes and enzyme:CKP inhibitor ratios were as follows: HTRA1^PD/PDZ, 12560 mRFU/min/nM – 1:667; HTRA2^PD/PDZ, 32300 mRFU/min/nM – 1:2000; HTRA3^PD/PDZ, 962 mRFU/min/nM – 1:33; HTRA4^PD/PDZ, 18 mRFU/min/nM – 1:2.

[3] = biological target: T4, HTRA1^FL, HTRA1^PD, HTRA1^PD/PDZ (Homo sapiens, UniProt Q92743); assay: Fluorescence-quenched casein-BODIPY assay, HTRA1 constructs; conditions: 2 µM CKP (0.5 mM 7mer-ABP)
T4 construct: made in house; host or cells: Trichoplusia ni cells (FL); E. coli (PD, PD/PDZ)
Protocol: as §1

DPMFKLV-phosphonate [7mer-ABP]
significantly inhibited: Inhibition of HTRA2^PD/PDZ, casein-BODIPY cleavage (% of control) (HTRA2^PD/PDZ [1]) | Inhibition of HTRA2^PD/PDZ, H2-OPT (% of control) (HTRA2^PD/PDZ [2]) | Inhibition of HTRA3^FL, H2-OPT (% of control) (HTRA3^PD/PDZ, HTRA3^FL; 3 nM HTRA3^FL) | Inhibition of HTRA3^PD/PDZ, H2-OPT (% of control) (HTRA3^PD/PDZ, HTRA3^FL; 60 nM HTRA3^PD/PDZ, 5 µM H2-OPT) | Inhibition of HTRA4^PD/PDZ, H2-OPT (% of control) (HTRA4^PD/PDZ, HTRA4^FL) | Inhibition of HTRA1^FL, casein-BODIPY cleavage (% of control) ([3]; 30 nM HTRA1^FL, 5 µg/ml casein, 37 °C) | Inhibition of HTRA1^PD/PDZ, casein-BODIPY cleavage (% of control) ([3]; 30 nM HTRA1^PD/PDZ)
